The text below walks through data of patent US6518290B1, “Substituted oxazoles and thiazoles derivatives as HPPAr alpha activators” (priority 1999, dated 2003).

One data set concerns the target T1, human PPAR alpha (Homo sapiens, UniProt Q07869).
T1 construct: expressed in transfected cells; host or cells: CV-1 cells
T1 sequence (Q07869 239-466 limits assumed): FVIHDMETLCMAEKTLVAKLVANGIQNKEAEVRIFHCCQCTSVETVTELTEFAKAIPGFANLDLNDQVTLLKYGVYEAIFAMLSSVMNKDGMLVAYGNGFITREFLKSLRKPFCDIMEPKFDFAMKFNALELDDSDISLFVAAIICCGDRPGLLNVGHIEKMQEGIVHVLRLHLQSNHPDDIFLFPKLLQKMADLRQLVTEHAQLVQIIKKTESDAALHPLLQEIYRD
Kind of data set: PPAR transient transfection (transactivation) assay in CV-1 cells, hPPAR alpha. Type of data set: cell-based. Conditions: PPAR LBD-GAL4 chimera, SPAP reporter, 24 h with compound, read-out: human αEC50. The text has this:
Compounds were screened for functional potency in transient transfection assays in CV-1 cells for their ability to activate the PPAR subtypes (transactivation assay). A previously established chimeric receptor system was utilized to allow comparison of the relative transcriptional activity of the receptor subtypes on the same target gene and to prevent endogenous receptor activation from complicating the interpretation of results. See, for example, Lehmann, J. M.; Moore, L. B.; Smith-Oliver, T. A.; Wilkison, W. O.; Willson, T. M.; Kliewer, S. A., An antidiabetic thiazolidinedione is a high affinity ligand for peroxisome proliferator-activated receptor γ (PPARγ), J. Biol. Chem., 1995, 270, 12953-6. The ligand binding domains for murine and human PPAR alpha, PPAR gamma, and PPAR delta were each fused to the yeast transcription factor GAL4 DNA binding domain. CV-1 cells were transiently transfected with expression vectors for the respective PPAR chimera along with a reporter construct containing five copies of the GAL4 DNA binding site driving expression of secreted placental alkaline phosphatase (SPAP) and β-galactosidase. After 16 h, the medium was exchanged to DME medium supplemented with 10% delipidated fetal calf serum and the test compound at the appropriate concentration. After an additional 24 h, cell extracts were prepared and assayed for alkaline phosphatase and β-galactosidase activity. […] Rosiglitazone (BRL 49653) was used as a positive control in the hPPAR gamma assay. The positive control in the hPPAR alpha assays was 2-(2-methyl-3-[3-{3-(4-cyclohexylamino)-[6-(4-fluorophenylpiperazin-1-yl)][1,3,5]triazin-2-ylamino}propyl]phenylthio)-2-methylpropionic acid. The positive control for PPAR delta assays was 2-{2-methyl-4-[({4-methyl-2-{trifluoromethyl)phenyl]-1,3-thiazol-5-yl}methyl)sulfanyl]phenoxy}acetic acid.

The target in another data set is T2, human PPAR delta (Homo sapiens, UniProt Q03181).
T2 construct: expressed in transfected cells; host or cells: CV-1 cells
T2 sequence (Q03181 211-439 limits assumed): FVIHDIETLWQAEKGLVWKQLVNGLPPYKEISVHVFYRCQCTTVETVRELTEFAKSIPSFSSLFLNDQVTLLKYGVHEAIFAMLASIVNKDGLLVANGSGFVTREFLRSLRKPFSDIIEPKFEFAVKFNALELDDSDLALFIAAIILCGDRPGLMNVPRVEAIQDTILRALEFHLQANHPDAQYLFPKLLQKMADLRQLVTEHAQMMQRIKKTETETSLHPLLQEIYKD
Kind of data set: PPAR transient transfection (transactivation) assay in CV-1 cells, PPAR delta. Type of data set: cell-based. Conditions: PPAR LBD-GAL4 chimera, SPAP reporter, 24 h with compound, read-out: human δEC50. The text has this:
(§1) Compounds were screened for functional potency in transient transfection assays in CV-1 cells for their ability to activate the PPAR subtypes (transactivation assay). A previously established chimeric receptor system was utilized to allow comparison of the relative transcriptional activity of the receptor subtypes on the same target gene and to prevent endogenous receptor activation from complicating the interpretation of results. See, for example, Lehmann, J. M.; Moore, L. B.; Smith-Oliver, T. A.; Wilkison, W. O.; Willson, T. M.; Kliewer, S. A., An antidiabetic thiazolidinedione is a high affinity ligand for peroxisome proliferator-activated receptor γ (PPARγ), J. Biol. Chem., 1995, 270, 12953-6. The ligand binding domains for murine and human PPAR alpha, PPAR gamma, and PPAR delta were each fused to the yeast transcription factor GAL4 DNA binding domain. CV-1 cells were transiently transfected with expression vectors for the respective PPAR chimera along with a reporter construct containing five copies of the GAL4 DNA binding site driving expression of secreted placental alkaline phosphatase (SPAP) and β-galactosidase. After 16 h, the medium was exchanged to DME medium supplemented with 10% delipidated fetal calf serum and the test compound at the appropriate concentration. After an additional 24 h, cell extracts were prepared and assayed for alkaline phosphatase and β-galactosidase activity. Alkaline phosphatase activity was corrected for transfection efficiency using the β-galactosidase activity as an internal standard (see, for example, Kliewer, S. A., et. al. Cell 83, 813-819 (1995)). Rosiglitazone (BRL 49653) was used as a positive control in the hPPAR gamma assay. The positive control in the hPPAR alpha assays was 2-(2-methyl-3-[3-{3-(4-cyclohexylamino)-[6-(4-fluorophenylpiperazin-1-yl)][1,3,5]triazin-2-ylamino}propyl]phenylthio)-2-methylpropionic acid. The positive control for PPAR delta assays was 2-{2-methyl-4-[({4-methyl-2-{trifluoromethyl)phenyl]-1,3-thiazol-5-yl}methyl)sulfanyl]phenoxy}acetic acid.

The target of a further data set is T3, human PPAR gamma (Homo sapiens, UniProt P37231).
T3 construct: expressed in transfected cells; host or cells: CV-1 cells
T3 sequence (P37231 238-503 limits assumed): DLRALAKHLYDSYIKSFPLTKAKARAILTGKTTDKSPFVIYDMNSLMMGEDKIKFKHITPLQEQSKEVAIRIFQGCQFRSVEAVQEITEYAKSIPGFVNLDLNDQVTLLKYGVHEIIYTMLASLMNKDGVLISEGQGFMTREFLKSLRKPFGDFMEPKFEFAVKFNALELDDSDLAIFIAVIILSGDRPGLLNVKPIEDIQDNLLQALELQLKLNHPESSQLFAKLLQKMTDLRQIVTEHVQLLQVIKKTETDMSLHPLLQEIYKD
Kind of data set: PPAR transient transfection (transactivation) assay in CV-1 cells, hPPAR gamma. Particulars: PPAR LBD-GAL4 chimera, SPAP reporter, 24 h with compound, read-out: human γEC50. Type of data set: cell-based.
Excerpt: as §1

In the case of `Cc1nc(-c2ccc(F)cc2)sc1C(=O)NCc1ccc(OC(C)(C)C(=O)O)cc1` [Example 31, 2-Methyl-2-[4-{[(4-methyl-2-[4-fluorophenyl]-thiazol-5-ylcarbonyl)amino]methyl}phenoxy]propionic Acid], the melting point – broadly, the temperature of the solid-liquid transition – came to 159 °C. Further, the EC50 at human PPAR alpha was 44 nM. Also, the EC50 at human PPAR delta was at least 10000 nM. The EC50 at human PPAR gamma is at least 10000 nM.
As for `Cc1nc(-c2ccc(C(C)(C)C)cc2)sc1C(=O)NCc1ccc(OC(C)(C)C(=O)O)cc1` [Example 13, 2-Methyl-2-[4-{[(4-methyl-2-[4-tertbutylphenyl]-thiazol-5-ylcarbonyl)amino]methyl}phenoxy]propionic Acid], the EC50 on human PPAR alpha was 5 nM; on human PPAR delta, at least 10000 nM; on human PPAR gamma it was 850 nM.
As for `Cc1nc(-c2ccc(Cl)c(Cl)c2)sc1C(=O)NCc1ccc(OC(C)(C)C(=O)O)cc1` [Example 21, 2-Methyl-2-[4-{[(4-methyl-2-[3,4-dichlorophenyl]-thiazol-5-ylcarbonyl)amino]methyl}phenoxy]propionic Acid], the EC50 on human PPAR alpha was 28 nM; at human PPAR delta it was at least 10000 nM; at human PPAR gamma it was at least 10000 nM.
`Cc1nc(-c2ccc(Cl)cc2)sc1C(=O)NCc1ccc(OC(C)(C)C(=O)O)cc1` [Example 33, 2-Methyl-2-[4-{[(4-methyl-2-[4-chlorophenyl]-thiazol-5-ylcarbonyl)amino]methyl}phenoxy]propionic Acid]: the EC50 was 14 nM at human PPAR alpha, 5350 nM at human PPAR delta and at least 10000 nM on human PPAR gamma.
